We go through 5 compounds from patent publication US4783452A, “Platinum coordination compounds” (Johnson Matthey Public Limited Company, priority 1985, dated 1988).

This series has as its system ADJ/PC6 tumour. In words: anti-tumour activity against ADJ/PC6 tumour implanted into female Balb C- mice. Type of series: in vivo. Also noted: LD50: unit not given here. The following applies: for TI / ED90: ADJ/PC6 tumour; for ED90: in mg/kg (unit assumed). As for the experimental part:
Compounds were administered both parenterally (IP) and orally (PO).

In the case of `CC1(C)OC(CN)C(CN)O1.[Br][Pt][Br]` (racemic) [cis-dibromo[4,5-bis(aminomethyl)-2,2-dimethyl-1,3-dioxolane]platinum (II)], where the note is “IP (parenteral)”, the LD50 is 21, the TI turned out to be 5.2 and the ED90 is given as 4.

In the case of `CC1(C)OC(CN)C(CN)O1.[Cl][Pt][Cl]` [cis-dichloro[(4R,5R)-4,5-bis-(aminomethyl)-2,2-dimethyl-1,3-] [cis-dichloro[(4R,5R)-4,5-bis-(aminomethyl)-2,2-dimethyl-1,3-dioxolane]platinum (II)], under “IP (parenteral)”, the LD50 worked out at 35, the TI came to 22.6 and the ED90 turned out to be 1.6. Where the note is “PO (oral)”, the LD50 was found to be 1100, the TI was 122 and the ED90 was 9.

Regarding `CC1(C)OC(CN)C(CN)O1.[Cl][Pt][Cl]` [cis-dichloro[(4S,5S)-4,5-bis-(aminomethyl)-2,2-dimethyl-1,3-] [cis-dichloro[(4S,5S)-4,5-bis-(aminomethyl)-2,2-dimethyl-1,3-dioxolane]platinum (II)], for the setting “IP (parenteral)”, the LD50 came to 35, the TI stood at 23.9 and the ED90 is recorded as 1.46. Where the note is “PO (oral)”, the LD50 turned out to be 1130, the TI came to 43.5 and the ED90 worked out at 26.

Regarding `[Cl][Pt]1([Cl])[NH]CC2OC(c3ccccc3)OC2C[NH]1` [cis-dichloro[(4S,5S)-4,5-bis-(aminomethyl)-2-phenyl-1,3-dioxolane]platinum (II)], under “IP (parenteral)”, the LD50 was greater than 800, the TI was greater than 26 and the ED90 was 30. Also, for the setting “PO (oral)”, the LD50 is given as greater than 1600, the TI is given as greater than 1 and the ED90 is listed as ~ 1600.

In the case of “cis-dichloro[2,3-dihydroxy-1,2-diamino butane)-platinum (II) [reference compound]”, where the note is “IP (parenteral)”, the LD50 was greater than 400, the TI is greater than 1 and the ED90 is given as 380. Under “PO (oral)”, the LD50 is listed as greater than 800.
